Patent publication EP4792833A1, “CLEAVABLE LINKER COMPOUND FOR PRODRUG DELIVERY SYSTEM, AND PREPARATION AND USE THEREOF” (East China Normal University, priority 2023, dated 2025)

Assays:
[1] = test system: HCT116, A549, MCF-7, HepG2, and 4T1 cells; test: In vitro drug cytotoxicity assay (MTT) with or without β-glucuronidase; type: cell-based; conditions: 72 h
Method: The in vitro cytotoxicity of Compound (J1-1) prepared in Example 1 of the present invention against HCT116, A549, MCF-7, HepG2, and 4T1 cells, as well as that in the presence of β-glucuronidase, was determined by MTT assay. A total of 200 µL of culture medium containing 4000 cells was seeded into each well of a 96-well plate. After incubation for adherence for 24 h in an incubator (37 °C, 5% CO2), the culture medium was removed, and 200 µL of drug solutions at various concentrations with or without β-glucuronidase supplementation was added, followed by incubation for 72 h. The medium was removed, 100 µL of MTT solution (0.5 mg/mL) was added to each well, and the plate was incubated for 3 h. Subsequently, 100 µL of triple solution was added to each well, and the plate was incubated for 12 h. The absorbance (OD) at 570 nm was measured using a microplate reader. Cell viability was calculated according to the following formula: Cell viability % = (ODsample −ODblank)/(ODcontrol −ODblank) × 100% [formula]
ODsampleis the absorbance of the drug-treated group, ODblank is the absorbance of complete medium alone, ODcontrol is the absorbance of the cell-seeded group without drug treatment.

[2] = test system: HCT116 cell xenograft tumor model; test: Antitumor effect in HCT116 xenograft nude mice; type: in vivo, BALB/c nude mice
Method: Female BALB/c nude mice (4 weeks old) were selected and acclimated for three days in a barrier facility. HCT116 cells (5×10^6) were subcutaneously inoculated into the right flank of nude mice. When tumors grew to 80-100 mm^3, tumor-bearing nude mice were randomly divided into four groups with six mice per group. Normal saline (blank group), 30 mg/kg of (J1-1), and 60 mg/kg of Compound (J1-1) prepared in Example 1 of the present invention (supplementary treatment group) were administered intravenously via the tail vein, respectively. Administration was performed twice a week for a total of five times. Body weight and tumor volume of nude mice were observed and recorded.

[3] = Stability test in PBS and mouse plasma (HPLC); type: in vitro ADME
Method: The PBS solution (1 mM, pH 7.4) of Compound (J1-1) prepared in Example 1 of the present invention was incubated at 37 °C. Corresponding samples (n=3) were taken on Day 1, Day 2, Day 3, Day 5, and Day 7, and the contents of (J1-1) and SN38 were determined by HPLC.
Mouse plasma stability: 40 µL of the PBS solution (1 mM, pH 7.4) of Compound (J1-1) prepared in Example 1 of the present invention was mixed with 360 µL of mouse plasma and incubated in a shaker at 37 °C. Corresponding samples (n=3) were taken on Day 1, Day 2, Day 3, Day 5, and Day 7, precipitated with cold acetonitrile, centrifuged at 4 °C for 30 min, and the supernatant was collected. The content of SN38 was determined by HPLC.

[4] = target: T1, β-glucuronidase (Homo sapiens, UniProt P08236); test: Enzyme release assay with β-glucuronidase (SN38 by HPLC); type: biochemical; conditions: for release of SN38 triggered by β-glucuronidase: β-glucuronidase 300 U, 37 °C, within 45 min
T1 sequence (P08236 23-651): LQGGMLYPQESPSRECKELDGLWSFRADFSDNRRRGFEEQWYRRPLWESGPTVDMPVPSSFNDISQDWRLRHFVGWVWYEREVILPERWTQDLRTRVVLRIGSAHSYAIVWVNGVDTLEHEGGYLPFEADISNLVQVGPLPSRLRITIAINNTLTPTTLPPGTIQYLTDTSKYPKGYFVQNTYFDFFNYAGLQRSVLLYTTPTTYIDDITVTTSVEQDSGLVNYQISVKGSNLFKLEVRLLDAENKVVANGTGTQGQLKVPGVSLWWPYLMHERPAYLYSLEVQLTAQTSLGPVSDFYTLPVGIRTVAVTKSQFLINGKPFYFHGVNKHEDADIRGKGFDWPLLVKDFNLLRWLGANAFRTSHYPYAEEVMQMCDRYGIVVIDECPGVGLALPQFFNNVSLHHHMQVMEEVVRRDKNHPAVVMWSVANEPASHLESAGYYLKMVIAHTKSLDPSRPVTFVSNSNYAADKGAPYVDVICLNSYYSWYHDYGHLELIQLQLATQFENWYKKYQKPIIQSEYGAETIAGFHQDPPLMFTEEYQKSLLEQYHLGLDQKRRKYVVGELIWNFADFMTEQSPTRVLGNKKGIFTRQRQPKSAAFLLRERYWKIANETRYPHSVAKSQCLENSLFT
Method: Compound (J1-1) solution (100 µM, pH 7.4 or pH 5.5) prepared in Example 1 of the present invention was mixed with β-glucuronidase (300 U) and incubated in a shaker at 37 °C. Corresponding samples (n=3) were taken at 1 min, 2 min, 5 min, 10 min, 20 min, 45 min, 60 min, and 90 min, precipitated with cold acetonitrile, centrifuged at 4 °C for 15 min, and the supernatant was collected. The content of SN38 was determined by HPLC.

## CCc1c2c(nc3ccc(OC(=O)N(C)c4cc([N+](=O)[O-])ccc4OCc4ccc(O[C@@H]5O[C@H](C(=O)O)[C@@H](O)[C@H](O)[C@H]5O)c(NC(=O)CCNC(=O)CCCCCN5C(=O)C=CC5=O)c4)cc13)-c1cc3c(c(=O)n1C2)COC(=O)[C@]3(O)CC [Compound J1-1]
[1]; with β-glucuronidase
  in vitro cytotoxicity in the presence of β-glucuronidase: could release the active drug upon β-glucuronidase triggering, thereby achieving the purpose of killing tumor cells
[1]; without β-glucuronidase
  in vitro cytotoxicity: low cytotoxicity
[2]; 30 mg/kg and 60 mg/kg intravenously via tail vein, twice a week, five administrations
  tumor volume: significantly reduced or even eliminated
[2]; HCT116 xenograft mouse model, summary statement
  survival period: significantly prolonged
[3]; mouse plasma with PBS at pH 7.4, 37 °C, within seven days
  release of SN38: less than 2%
[3]; summary statement
  in vitro and in vivo stability: excellent
[4]; conditions simulating the tumor microenvironment, summary statement
  release of the active drug: can rapidly release the active drug
[4]; pH 5.5, 100 µM
  release of SN38 triggered by β-glucuronidase: 100%
[4]; pH 7.4, 100 µM
  release of SN38 triggered by β-glucuronidase: 100%
